Assay results from US10500166B2, “Methods for the treatment of erectile dysfunction using fispemifene” (QUATRX PHARMACEUTICALS, priority 2007, dated 2019).

Experiments:
[1] = tested on: calculated free testosterone; assay: Example 3 study in hypogonadal men: calculated serum free testosterone (ITT); assay type: in vivo, human
Description: FIG. 7 depicts a graph of the data of the study from Example 3 showing the calculated serum free testosterone level (ng/dL) over time for each of the treatment groups. The bars from left to right for each of the BL (baseline), 2 week, 4 week, and 6 week timepoints (the 6 week timepoint occurred 2 weeks after the discontinuation of study drug at week 4) correspond to the placebo, 100 mg, 200 mg, and 300 mg/day doses, respectively;
(§1) A randomized, double-blind, placebo controlled, parallel-group study of once-daily doses of fispemifene (100, 200, and 300 mg/day) given for 4 weeks was conducted in a population of hypogonadal men. Subjects were required to meet all of the following inclusion criteria at screening and prior to randomization to be eligible for the study:
(§2) There were 77 subjects total. The number of subjects randomized to the 100 mg fispemifene, 200 mg fispemifene, 300 mg fispemifene, and placebo arms were 21, 21, 19, and 16, respectively.
(§3) Subjects were randomly assigned to one of four treatment groups in a 1:1:1:1 ratio: • Treatment A (100 mg): fispemifene 100 mg+placebo+placebo; • Treatment B (200 mg): fispemifene 100 mg+fispemifene 100 mg+placebo; • Treatment C (300 mg): fispemifene 100 mg+fispemifene 100 mg+fispemifene 100 mg; and • Treatment D (Placebo): placebo+placebo+placebo.
(§4) Subjects took one dose (three capsules) of study medication once a day at home for 4 weeks. Capsules were to be taken in the morning immediately after breakfast, with the exception of the morning of the Week 4 visit. Capsules were not to be taken on the morning of the Week 4 visit because trough plasma levels of fispemifene were determined by a blood sample taken at this visit. Each subject was randomly assigned to treatment with one of the 3 different dose regimens of fispemifene or placebo vehicle. Each subject received a 4 week supply of study drug.
(§5) Blood samples were taken from the subjects within 1 week prior to dosing with study drug to establish baseline values; after 2 and 4 weeks of randomization; and 2 weeks after the last dose of study drug. Serum was prepared from those samples and used to determine the mean % change from baseline in total testosterone, free testosterone, SHBG (sex hormone-binding globulin), DHT (dihydrotestosterone), E2 (estradiol), LH (luteinizing hormone), FSH (follicle stimulating hormone), and inhibin B.
1. Percent change from baseline in free testosterone and calculated free testosterone at Weeks 2, 4, and 6;

[2] = tested on: DHT (dihydrotestosterone); assay: Example 3 study in hypogonadal men: serum dihydrotestosterone (ITT); assay type: in vivo, human; details: for Dihydrotestosterone, Max / Dihydrotestosterone, Mean ± SD / Dihydrotestosterone, Median / Dihydrotestosterone, Min: Baseline (Visit 2);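 as to Dihydrotestosterone, Max: serum DHT concentration in pg/mL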;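 as to Dihydrotestosterone, Mean ± SD: serum DHT concentration in pg/mL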;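 as to Dihydrotestosterone, Median: serum DHT concentration in pg/mL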;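 as to Dihydrotestosterone, Min: serum DHT concentration in pg/mL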
Description: as §1, §2, §3, §4, §5
3. Percent change from baseline in SHBG, DHT, E2, LH, FSH, inhibin B, and testosterone/E2 ratio at Weeks 2, 4, and 6.

[3] = 100 mg/day, Week 6 (2 weeks after discontinuation)
[4] = 100 mg/day, to Week 6 (2 weeks after discontinuation)
[5] = 200 mg/day, Week 6 (2 weeks after discontinuation)
[6] = 200 mg/day, to Week 6 (2 weeks after discontinuation)
[7] = 300 mg/day, Week 6 (2 weeks after discontinuation)
[8] = 300 mg/day, to Week 6 (2 weeks after discontinuation)

OCCOCCOc1ccc(/C(=C(/CCCl)c2ccccc2)c2ccccc2)cc1 [Fispemifene, (Z)-2-{2-[4-(4-Chloro-1,2-diphenylbut-1-enyl)phenoxy]ethoxy}ethanol]
Calculated Free Testosterone, Max ([1]; 100 mg/day, Baseline (Visit 2)): 7.54 ng/dL | Calculated Free Testosterone, Mean ± SD ([1]; 100 mg/day, Baseline (Visit 2)): 4.81 ± 1.368 ng/dL | Calculated Free Testosterone, Median ([1]; 100 mg/day, Baseline (Visit 2)): 4.95 ng/dL | Calculated Free Testosterone, Min ([1]; 100 mg/day, Baseline (Visit 2)): 2.19 ng/dL | Calculated Free Testosterone, Max ([1]; 100 mg/day, Week 2): 10.27 ng/dL | Calculated Free Testosterone, Mean ± SD ([1]; 100 mg/day, Week 2): 6.64 ± 1.732 ng/dL | Calculated Free Testosterone, Median ([1]; 100 mg/day, Week 2): 6.46 ng/dL | Calculated Free Testosterone, Min ([1]; 100 mg/day, Week 2): 4.32 ng/dL | Calculated Free Testosterone, Max ([1]; 100 mg/day, Week 4): 9.13 ng/dL | Calculated Free Testosterone, Mean ± SD ([1]; 100 mg/day, Week 4): 6.59 ± 1.396 ng/dL | Calculated Free Testosterone, Median ([1]; 100 mg/day, Week 4): 6.63 ng/dL | Calculated Free Testosterone, Min ([1]; 100 mg/day, Week 4): 4.15 ng/dL | Calculated Free Testosterone, Max [1, 3]: 7.05 ng/dL | Calculated Free Testosterone, Mean ± SD [1, 3]: 5.15 ± 1.057 ng/dL | Calculated Free Testosterone, Median [1, 3]: 5.10 ng/dL | Calculated Free Testosterone, Min [1, 3]: 2.57 ng/dL | Calculated Free Testosterone, % Change from Baseline, Max ([1]; 100 mg/day, to Week 2): 100% | Calculated Free Testosterone, % Change from Baseline, Median ([1]; 100 mg/day, to Week 2): 36% | Calculated Free Testosterone, % Change from Baseline, Min ([1]; 100 mg/day, to Week 2): 8% | Calculated Free Testosterone, % Change from Baseline, Max ([1]; 100 mg/day, to Week 4): 157% | Calculated Free Testosterone, % Change from Baseline, Median ([1]; 100 mg/day, to Week 4): 36% | Calculated Free Testosterone, % Change from Baseline, Max [1, 4]: 115% | Calculated Free Testosterone, % Change from Baseline, Median [1, 4]: 8% | Calculated Free Testosterone, Max ([1]; 200 mg/day, Baseline (Visit 2)): 7.29 ng/dL | Calculated Free Testosterone, Mean ± SD ([1]; 200 mg/day, Baseline (Visit 2)): 4.80 ± 1.143 ng/dL | Calculated Free Testosterone, Median ([1]; 200 mg/day, Baseline (Visit 2)): 4.70 ng/dL | Calculated Free Testosterone, Min ([1]; 200 mg/day, Baseline (Visit 2)): 2.66 ng/dL | Calculated Free Testosterone, Max ([1]; 200 mg/day, Week 2): 8.98 ng/dL | Calculated Free Testosterone, Mean ± SD ([1]; 200 mg/day, Week 2): 6.37 ± 1.386 ng/dL | Calculated Free Testosterone, Median ([1]; 200 mg/day, Week 2): 6.21 ng/dL | Calculated Free Testosterone, Min ([1]; 200 mg/day, Week 2): 4.11 ng/dL | Calculated Free Testosterone, Max ([1]; 200 mg/day, Week 4): 9.83 ng/dL | Calculated Free Testosterone, Mean ± SD ([1]; 200 mg/day, Week 4): 6.64 ± 1.658 ng/dL | Calculated Free Testosterone, Median ([1]; 200 mg/day, Week 4): 6.39 ng/dL | Calculated Free Testosterone, Min ([1]; 200 mg/day, Week 4): 4.05 ng/dL | Calculated Free Testosterone, Max [1, 5]: 7.81 ng/dL | Calculated Free Testosterone, Mean ± SD [1, 5]: 5.153 ± 1.328 ng/dL | Calculated Free Testosterone, Median [1, 5]: 4.88 ng/dL | Calculated Free Testosterone, Min [1, 5]: 3.60 ng/dL | Calculated Free Testosterone, % Change from Baseline, Max ([1]; 200 mg/day, to Week 2): 124% | Calculated Free Testosterone, % Change from Baseline, Median ([1]; 200 mg/day, to Week 2): 28% | Calculated Free Testosterone, % Change from Baseline, Min ([1]; 200 mg/day, to Week 2): 1% | Calculated Free Testosterone, % Change from Baseline, Max ([1]; 200 mg/day, to Week 4): 112% | Calculated Free Testosterone, % Change from Baseline, Median ([1]; 200 mg/day, to Week 4): 40% | Calculated Free Testosterone, % Change from Baseline, Max [1, 6]: 75% | Calculated Free Testosterone, % Change from Baseline, Median [1, 6]: 6% | Calculated Free Testosterone, Max ([1]; 300 mg/day, Baseline (Visit 2)): 7.02 ng/dL | Calculated Free Testosterone, Mean ± SD ([1]; 300 mg/day, Baseline (Visit 2)): 4.66 ± 1.509 ng/dL | Calculated Free Testosterone, Median ([1]; 300 mg/day, Baseline (Visit 2)): 4.94 ng/dL | Calculated Free Testosterone, Min ([1]; 300 mg/day, Baseline (Visit 2)): 0.23 ng/dL | Calculated Free Testosterone, Max ([1]; 300 mg/day, Week 2): 9.79 ng/dL | Calculated Free Testosterone, Mean ± SD ([1]; 300 mg/day, Week 2): 6.43 ± 2.152 ng/dL | Calculated Free Testosterone, Median ([1]; 300 mg/day, Week 2): 7.25 ng/dL | Calculated Free Testosterone, Min ([1]; 300 mg/day, Week 2): 0.14 ng/dL | Calculated Free Testosterone, Max ([1]; 300 mg/day, Week 4): 10.31 ng/dL | Calculated Free Testosterone, Mean ± SD ([1]; 300 mg/day, Week 4): 7.33 ± 2.589 ng/dL | Calculated Free Testosterone, Median ([1]; 300 mg/day, Week 4): 8.40 ng/dL | Calculated Free Testosterone, Min ([1]; 300 mg/day, Week 4): 0.10 ng/dL | Calculated Free Testosterone, Max [1, 7]: 8.02 ng/dL | Calculated Free Testosterone, Mean ± SD [1, 7]: 5.29 ± 1.791 ng/dL | Calculated Free Testosterone, Median [1, 7]: 5.44 ng/dL | Calculated Free Testosterone, Min [1, 7]: 0.22 ng/dL | Calculated Free Testosterone, % Change from Baseline, Max ([1]; 300 mg/day, to Week 2): 83% | Calculated Free Testosterone, % Change from Baseline, Median ([1]; 300 mg/day, to Week 2): 40% | Calculated Free Testosterone, % Change from Baseline, Max ([1]; 300 mg/day, to Week 4): 133% | Calculated Free Testosterone, % Change from Baseline, Median ([1]; 300 mg/day, to Week 4): 59% | Calculated Free Testosterone, % Change from Baseline, Max [1, 8]: 65% | Calculated Free Testosterone, % Change from Baseline, Median [1, 8]: 10% | Dihydrotestosterone, Max ([2]; 100 mg/day): 385.0 pg/mL | Dihydrotestosterone, Mean ± SD ([2]; 100 mg/day): 177.5 ± 88.58 pg/mL | Dihydrotestosterone, Median ([2]; 100 mg/day): 180.0 pg/mL | Dihydrotestosterone, Min ([2]; 100 mg/day): 50.0 pg/mL | Dihydrotestosterone, % Change from Baseline, Max ([2]; 100 mg/day, to Week 2): 109% | Dihydrotestosterone, % Change from Baseline, Median ([2]; 100 mg/day, to Week 2): 42% | Dihydrotestosterone, % Change from Baseline, Min ([2]; 100 mg/day, to Week 2): 0% | Dihydrotestosterone, % Change from Baseline, Max ([2]; 100 mg/day, to Week 4): 98% | Dihydrotestosterone, % Change from Baseline, Median ([2]; 100 mg/day, to Week 4): 33% | Dihydrotestosterone, % Change from Baseline, Max [2, 4]: 64% | Dihydrotestosterone, % Change from Baseline, Median [2, 4]: 19% | Dihydrotestosterone, Max ([2]; 200 mg/day): 398.0 pg/mL | Dihydrotestosterone, Mean ± SD ([2]; 200 mg/day): 185.2 ± 95.37 pg/mL | Dihydrotestosterone, Median ([2]; 200 mg/day): 168.0 pg/mL | Dihydrotestosterone, Min ([2]; 200 mg/day): 67.0 pg/mL | Dihydrotestosterone, % Change from Baseline, Max ([2]; 200 mg/day, to Week 2): 128% | Dihydrotestosterone, % Change from Baseline, Median ([2]; 200 mg/day, to Week 2): 50% | Dihydrotestosterone, % Change from Baseline, Max ([2]; 200 mg/day, to Week 4): 162% | Dihydrotestosterone, % Change from Baseline, Median ([2]; 200 mg/day, to Week 4): 61% | Dihydrotestosterone, % Change from Baseline, Max [2, 6]: 78% | Dihydrotestosterone, % Change from Baseline, Median [2, 6]: 11% | Dihydrotestosterone, Max ([2]; 300 mg/day): 294.0 pg/mL | Dihydrotestosterone, Mean ± SD ([2]; 300 mg/day): 171.6 ± 76.42 pg/mL | Dihydrotestosterone, Median ([2]; 300 mg/day): 179.0 pg/mL | Dihydrotestosterone, Min ([2]; 300 mg/day): 50.0 pg/mL | Dihydrotestosterone, % Change from Baseline, Max ([2]; 300 mg/day, to Week 2): 162% | Dihydrotestosterone, % Change from Baseline, Median ([2]; 300 mg/day, to Week 2): 65% | Dihydrotestosterone, % Change from Baseline, Min ([2]; 300 mg/day, to Week 2): 0% | Dihydrotestosterone, % Change from Baseline, Max ([2]; 300 mg/day, to Week 4): 163% | Dihydrotestosterone, % Change from Baseline, Median ([2]; 300 mg/day, to Week 4): 73% | Dihydrotestosterone, % Change from Baseline, Min ([2]; 300 mg/day, to Week 4): 0% | Dihydrotestosterone, % Change from Baseline, Max [2, 8]: 98% | Dihydrotestosterone, % Change from Baseline, Median [2, 8]: 19%
